Patent publication US8513232B2, “Substituted spirocyclic piperidine derivatives as histamine-3 (H3) receptor ligands” (Cephalon, Inc., priority 2008, dated 2013)
pKi: −log10 of the molar value. Read-outs that look alike come from different tables or passages of the source.

How the values were obtained:
[1] = target: T1, human H3 receptor (Homo sapiens, UniProt Q9Y5N1); experiment: Human H3 radioligand binding ([3H]-N-alpha-methylhistamine, SPA)
T1 construct: expressed in transfected cells
Summary of the method: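 SPA competition binding on membranes from CHO cells stably expressing human H3 receptor (10 μg protein/well) with ~1 nM [3H]-N-alpha-methylhistamine and compound at 0.01 nM-30 μM. Incubation 4 h at room temperature in 50 mM Tris-HCl pH 7.4, 5 mM MgCl2, 0.1% BSA; non-specific binding defined with 10 μM clobenpropit.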

[2] = target: T2, rat histamine H3 receptor (Rattus norvegicus, UniProt Q9QYN8); experiment: Rat H3 radioligand binding ([3H]-N-alpha-methylhistamine, SPA)
T2 construct: encoding the entire 445-amino-acid rat histamine H3 receptor; expressed in transfected cells; membrane preparation
Summary of the method: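 Membranes from CHO-A3 cells stably expressing full-length rat H3 receptor (10 μg protein/well) incubated 4 h at room temperature, protected from light, with ~1 nM [3H]-N-alpha-methylhistamine and compound (0.01 nM-30 μM) in 50 mM Tris HCl pH 7.4, 5 mM MgCl2, 0.1% BSA. Binding read by SPA; 10 μM clobenpropit defined non-specific binding.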

[3] = human H3 binding, Table D, read-out: Human H3 Ki
[4] = rat H3 binding, Table D, read-out: Rat H3 Ki
[5] = Human H3 binding, Table B, Examples 136-362, read-out: hum H3 binding Ki
[6] = Rat H3 binding, Table B, Examples 136-362, read-out: rat H3 binding Ki
[7] = Table A, human H3 binding, read-out: Human Ki
[8] = Table A, rat H3 binding, read-out: Rat Ki
[9] = Table C, human H3 binding, read-out: Human H3 Ki
[10] = Table C, rat H3 binding, read-out: Rat H3 Ki

T2 sequence (Q9QYN8 whole entry): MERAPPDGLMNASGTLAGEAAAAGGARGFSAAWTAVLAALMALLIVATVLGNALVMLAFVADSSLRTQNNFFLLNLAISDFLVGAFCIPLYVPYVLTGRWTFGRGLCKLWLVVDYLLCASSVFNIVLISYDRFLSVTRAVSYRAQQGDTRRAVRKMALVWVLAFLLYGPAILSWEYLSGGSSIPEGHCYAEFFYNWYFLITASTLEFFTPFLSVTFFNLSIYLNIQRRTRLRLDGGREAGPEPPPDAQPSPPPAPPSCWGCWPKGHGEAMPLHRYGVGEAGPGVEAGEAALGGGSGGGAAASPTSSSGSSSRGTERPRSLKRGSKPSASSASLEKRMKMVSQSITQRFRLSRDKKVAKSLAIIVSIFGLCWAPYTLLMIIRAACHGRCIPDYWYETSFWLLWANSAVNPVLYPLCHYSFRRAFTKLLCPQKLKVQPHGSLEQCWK
T1 sequence (Q9Y5N1 whole entry): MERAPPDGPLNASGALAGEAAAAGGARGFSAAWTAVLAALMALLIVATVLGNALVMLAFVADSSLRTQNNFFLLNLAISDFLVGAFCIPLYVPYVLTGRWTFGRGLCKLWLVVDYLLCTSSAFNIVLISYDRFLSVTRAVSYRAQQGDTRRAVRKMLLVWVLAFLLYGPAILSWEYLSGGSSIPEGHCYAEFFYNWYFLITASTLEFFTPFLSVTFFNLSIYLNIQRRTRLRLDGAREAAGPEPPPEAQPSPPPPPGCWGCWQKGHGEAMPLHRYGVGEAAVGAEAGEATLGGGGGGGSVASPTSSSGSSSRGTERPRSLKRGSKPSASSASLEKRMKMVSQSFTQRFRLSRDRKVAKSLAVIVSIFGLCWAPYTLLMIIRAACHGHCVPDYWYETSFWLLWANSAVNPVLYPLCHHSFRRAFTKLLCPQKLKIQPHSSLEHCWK

SMILES | pKi [1, 3] | melting point | pKi [2, 4] | pKi [1, 5] | pKi [2, 6] | also measured
FC(F)(F)COc1cc(-c2ccc3c(c2)COC2(CCN(C4CCC4)CC2)O3)c(Cl)cn1 [Example 782] | > 6.70 | 119 to 121 °C | > 6.70 | – | – | –
NC(=O)c1ccc(-c2ccc3c(c2)COC2(CCN(C4CCC4)CC2)O3)cc1O [Example 743] | > 6.70 | 267 to 269 °C | > 6.70 | – | – | –
c1cc(COc2ccc3c(c2)CCC2(CCN(C4CCC4)CC2)O3)ccn1 [Example 269] | – | 233 to 235 °C | – | > 6.70 | > 6.70 | –
COCCNC(=O)c1ccc(-c2cc3c(cc2Cl)OC2(CCN(C4CCC4)CC2)OC3)cc1 [Example 264] | – | 49 to 51 °C | – | > 6.70 | 6.00 to 6.70 | –
O=C1CCC(c2ccc3c(c2)COC2(CCN(C4CCC4)CC2)O3)CN1CC(F)F (stereo not drawn) [Example 560] | – | 120 to 126 °C | – | – | – | pKi ([1]; read-out: Human H3 Ki): 6.00 to 6.70; pKi ([2]; read-out: Rat H3 kI): 6.00 to 6.70
N#Cc1cccc(Nc2ccc3c(c2)COC2(CCN(C4CCC4)CC2)O3)c1 [Example 123] | – | 55 to 60 °C | – | – | – | pKi [1, 7]: > 6.70; pKi [2, 8]: > 6.70
Cc1nc2cccc(C(F)(F)F)c2c(=O)n1-c1ccc2c(c1)COC1(CCN(C3CCC3)CC1)O2 [Example 791] | > 6.70 | 221 to 222 °C | > 6.70 | – | – | –
Cc1nc2cccc(Cl)c2c(=O)n1-c1ccc2c(c1)COC1(CCN(C3CCC3)CC1)O2 [Example 801] | > 6.70 | 105 to 107 °C | > 6.70 | – | – | –
COc1ncc(-c2ccc3c(c2)COC2(CCN(C4CCC4)CC2)O3)cc1Cl [Example 629] | > 6.70 | 174 to 175 °C | > 6.70 | – | – | –
O=C(Nc1ccc2c(c1)COC1(CCN(C3CCC3)CC1)O2)c1ccnc(F)c1 [Example 291] | – | 187 to 188 °C | – | > 6.70 | > 6.70 | –
COc1ncc(-c2ccc3c(c2)COC2(CCN(C4CCC4)CC2)O3)cc1O [Example 788] | > 6.70 | 61 to 63 °C | > 6.70 | – | – | –
O=C(NC1CCOCC1)c1ccc(-c2ccc3c(c2)CCC2(CCN(C4CCC4)CC2)O3)cc1 [Example 361] | – | 205 to 207 °C | – | > 6.70 | > 6.70 | –
O=C(c1ccc(-c2ccc3c(c2)OC2(CCN(C4CCC4)CC2)O3)cc1)N1CCCC1 [Example 90] | – | 176.8 to 177.3 °C | – | – | – | pKi [1, 7]: > 6.70; pKi [2, 8]: 6.00 to 6.70
COC1(c2ccc3c(c2)COC2(CCN(C4CCC4)CC2)O3)CCC(F)(F)CC1 [Example 556] | – | 116 to 118 °C | – | – | – | pKi ([1]; read-out: Human H3 Ki): > 6.70; pKi ([2]; read-out: Rat H3 kI): > 6.70
O=C(C1CCN(c2ccc3c(c2)CCC2(CCN(C4CCC4)CC2)O3)CC1)N1CCOCC1 [Example 434] | – | 165 to 167 °C | – | – | – | pKi [1, 9]: > 6.70; pKi [2, 10]: > 6.70
O=C(Nc1ccc2c(c1)COC1(CCN(C3CCC3)CC1)O2)c1ccc2ncsc2c1 [Example 316] | – | 232 to 234 °C | – | > 6.70 | > 6.70 | –
O=C(Nc1ccc2c(c1)COC1(CCN(C3CCC3)CC1)O2)c1ccnc(N2CCCC2)c1 [Example 309] | – | 234 to 236 °C | – | > 6.70 | > 6.70 | –
CC(C)(C)OC(=O)N1CCC(Oc2ccc3c(c2)CCC2(CCN(C4CCC4)CC2)O3)CC1 [Example 417, 1′-cyclobutyl-6-(piperidine-1-carboxylic acid tert-butyl ester-4-yloxy)-3,4-dihydro spiro-[2H-benzopyran-2,4′-piperidine]] | – | 118 to 120 °C | – | – | – | pKi [1, 9]: > 6.70; pKi [2, 10]: > 6.70
Cc1cc(C(=O)Nc2ccc3c(c2)COC2(CCN(C4CCC4)CC2)O3)ccn1 [Example 315] | – | 184 to 185 °C | – | > 6.70 | > 6.70 | –
O=C1CCN(C(=O)c2ccc(-c3ccc4c(c3)CCC3(CCN(C5CCC5)CC3)O4)cc2)CC1 [Example 197] | – | 82.9 to 84.3 °C | – | – | – | pKi [1]: > 6.70; pKi [2]: > 6.70
